In one series the target is T1, rMAO-B (Rattus norvegicus, UniProt P19643).
T1 construct: from tissue; host or cells: rat brain mitochondrial homogenate
T1 sequence (P19643 1-520): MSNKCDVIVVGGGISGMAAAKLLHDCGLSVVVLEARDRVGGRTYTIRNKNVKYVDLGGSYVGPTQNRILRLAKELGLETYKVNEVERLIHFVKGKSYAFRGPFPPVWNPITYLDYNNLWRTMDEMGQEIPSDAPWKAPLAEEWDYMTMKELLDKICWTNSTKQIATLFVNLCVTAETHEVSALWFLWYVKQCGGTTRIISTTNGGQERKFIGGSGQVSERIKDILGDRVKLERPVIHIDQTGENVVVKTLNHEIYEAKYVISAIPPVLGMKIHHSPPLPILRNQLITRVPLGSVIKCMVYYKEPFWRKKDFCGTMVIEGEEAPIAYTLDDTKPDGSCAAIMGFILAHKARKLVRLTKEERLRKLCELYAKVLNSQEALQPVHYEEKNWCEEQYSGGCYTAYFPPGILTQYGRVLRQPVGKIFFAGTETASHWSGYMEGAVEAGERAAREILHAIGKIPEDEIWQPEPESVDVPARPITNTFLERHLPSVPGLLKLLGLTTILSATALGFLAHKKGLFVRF
Kind of series: rat MAO-B inhibition, kynuramine spectrophotometric assay. Format: biochemical. The conditions noted are these: for inhibition at 10 µM: read-out: MAO-B % inhibition at 10 µM.

The target in the next series is T2, rMAO-A (Rattus norvegicus, UniProt P21396).
T2 construct: from tissue; host or cells: rat brain mitochondrial homogenate
T2 sequence (P21396 1-526): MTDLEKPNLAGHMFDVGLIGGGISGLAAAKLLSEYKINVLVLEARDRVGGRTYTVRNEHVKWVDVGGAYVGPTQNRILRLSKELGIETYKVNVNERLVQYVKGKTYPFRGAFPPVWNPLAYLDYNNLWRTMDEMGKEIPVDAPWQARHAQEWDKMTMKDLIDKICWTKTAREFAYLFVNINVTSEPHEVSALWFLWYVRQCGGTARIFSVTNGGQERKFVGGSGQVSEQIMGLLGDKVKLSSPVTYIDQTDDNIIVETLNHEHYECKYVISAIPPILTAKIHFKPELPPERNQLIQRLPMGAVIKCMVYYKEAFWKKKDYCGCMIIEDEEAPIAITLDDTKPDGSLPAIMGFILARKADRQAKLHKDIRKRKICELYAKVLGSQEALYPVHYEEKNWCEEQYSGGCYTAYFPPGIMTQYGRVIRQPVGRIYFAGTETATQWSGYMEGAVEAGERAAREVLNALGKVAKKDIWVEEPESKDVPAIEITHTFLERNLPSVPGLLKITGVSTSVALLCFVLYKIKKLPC
Briefly: rat MAO-A inhibition, kynuramine spectrophotometric assay. The conditions noted are these: rat brain homogenates; for inhibition at 10 µM: read-out: MAO-A % inhibition at 10 µM. Format: biochemical.

For series [1], the target named is T3, electric eel AChE (eeAChE) (Electrophorus electricus, UniProt O42275).
T3 construct: purchased Sigma Aldrich, Milan, Italy
Kind of series: biochemical.

The target in series [2] is T4, equine serum butyrylcholinesterase (esBChE) (Equus caballus, UniProt P81908).
T4 construct: BChE from equine serum (13 U/mg; Sigma); purchased Sigma; host or cells: equine serum
Kind of series: BChE inhibition, Ellman's method. Format: biochemical. To be noted: read-out: BChE % inhibition at 10 µM. (Ellman's reagent forms a yellow product with free thiols.)
Protocol: 2H-Chromen-2-ones 3a–m and 8 were evaluated as inhibitors of electric eel AChE (eeAChE), equine serum butyrylcholinesterase (esBChE) and rat MAOs (rMAO-A and rMAO-B). In vitro enzymatic assays on ChEs were accomplished through the well-known spectrophotometric Ellman’s method [20].

Another series has as its system P-gp (MDR1). Kind of series: in vitro. The conditions noted are these: dog, MDCK-MDR1, pH 7.4.
For series [3], the system named is SH-SY5Y cells. Briefly: Cytotoxicity, MTT assay. The conditions noted are these: 24 h incubation, 0.1–50 µM. Format: cell-based. (Tetrazolium dyes change colour on reduction, which living cells bring about.)
Protocol: Human neuroblastoma cells SH-SY5Y were maintained at 37 °C in a humidified incubator containing 5% CO2 in DMEM nutrient (Lonza) supplemented with 10% heat inactivated FBS, 2 mM L-glutamine, 100 U/mL penicillin and 100 µg/mL streptomycin. Cells were dispensed into 96-well microtiter plates at a density of 10,000 cells/well. […] Then, the plates were incubated at 37 °C for 24 h. An amount of 10 µL of 0.5% w/v MTT was further added to each well, and the plates were incubated for an additional 3 h at 37 °C. Finally, the cells were lysed by the addition of 100 µL of DMSO/EtOH 1:1 (v/v) solution.
Untreated cells were used as the control.
Series [4] has as its system SH-SY5Y cells. Kind of series: Neuroprotection against oxidative stress insults, MTT assay. Format: cell-based, human.
Protocol: Therefore, a preliminary evaluation of the cytotoxicity and neuroprotective efficacy of this hit compound was undertaken in the human SH-SY5Y neuroblastoma cell line by following the 3-(4,5-dimethylthiazol-2-yl)-2,5-diphenyl-tetrazolium bromide (MTT) assay [22].
Human neuroblastoma SH-SY5Y cells were dispensed into 96-well microtiter plates at a density of 10,000 cells/well. […] The cell viability was determined by the MTT assay and analyzed as above described. Each compound was tested in triplicate, and the experiments were repeated three times. Statistical significance was assigned to p < 0.01 and calculated using a one-way analysis of variance (ANOVA) followed by the Bonferroni post hoc tests (GraphPad Prism vers. 5).
Results are expressed as the percentage of viable cells, and data represent the means ± SD (n = 3).
[5] abbreviates: from electric eel, read-out: AChE IC50.
Where [6] appears, read: determined after 30 min pre-incubation.

These results are taken from PMC6273473 (Molecules, 2016).

In general, inhibition refers to the drop in the measured response relative to a control, in per cent. As usually defined, the IC50 is the concentration at which inhibition is half-maximal. The Papp A→B is how fast a substance crosses the layer from the apical side. Higher therefore signals ready permeation. By Papp B→A is commonly meant the apparent permeability from the basolateral to the apical side of a cell layer.

The structures appear in SMILES notation. “And” between values parts separate entries of the source, which are not always exact repeats. Equal entries are not always repeated. “Also recorded” adds a separate entry of the source. Structures can show the parent of a compound that is named as a salt. Where two headings read alike, the source gives them in different places.

T3 sequence (O42275 24-633): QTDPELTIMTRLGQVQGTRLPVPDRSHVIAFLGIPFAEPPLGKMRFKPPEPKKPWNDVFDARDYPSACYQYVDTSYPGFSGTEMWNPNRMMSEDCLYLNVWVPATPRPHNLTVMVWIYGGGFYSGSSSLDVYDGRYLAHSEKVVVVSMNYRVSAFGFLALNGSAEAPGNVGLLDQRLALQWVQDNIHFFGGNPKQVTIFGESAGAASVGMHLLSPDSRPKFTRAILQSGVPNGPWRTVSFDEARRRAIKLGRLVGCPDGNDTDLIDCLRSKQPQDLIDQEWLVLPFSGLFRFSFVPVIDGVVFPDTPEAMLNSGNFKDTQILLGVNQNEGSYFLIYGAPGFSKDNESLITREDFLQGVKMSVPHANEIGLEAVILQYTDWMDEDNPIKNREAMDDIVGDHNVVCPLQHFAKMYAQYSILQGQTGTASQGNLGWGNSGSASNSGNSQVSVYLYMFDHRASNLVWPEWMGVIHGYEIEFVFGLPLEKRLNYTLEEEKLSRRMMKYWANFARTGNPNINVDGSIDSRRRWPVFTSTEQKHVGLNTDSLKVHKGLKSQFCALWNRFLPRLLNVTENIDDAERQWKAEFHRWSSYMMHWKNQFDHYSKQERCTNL
T4 sequence (P81908 whole entry): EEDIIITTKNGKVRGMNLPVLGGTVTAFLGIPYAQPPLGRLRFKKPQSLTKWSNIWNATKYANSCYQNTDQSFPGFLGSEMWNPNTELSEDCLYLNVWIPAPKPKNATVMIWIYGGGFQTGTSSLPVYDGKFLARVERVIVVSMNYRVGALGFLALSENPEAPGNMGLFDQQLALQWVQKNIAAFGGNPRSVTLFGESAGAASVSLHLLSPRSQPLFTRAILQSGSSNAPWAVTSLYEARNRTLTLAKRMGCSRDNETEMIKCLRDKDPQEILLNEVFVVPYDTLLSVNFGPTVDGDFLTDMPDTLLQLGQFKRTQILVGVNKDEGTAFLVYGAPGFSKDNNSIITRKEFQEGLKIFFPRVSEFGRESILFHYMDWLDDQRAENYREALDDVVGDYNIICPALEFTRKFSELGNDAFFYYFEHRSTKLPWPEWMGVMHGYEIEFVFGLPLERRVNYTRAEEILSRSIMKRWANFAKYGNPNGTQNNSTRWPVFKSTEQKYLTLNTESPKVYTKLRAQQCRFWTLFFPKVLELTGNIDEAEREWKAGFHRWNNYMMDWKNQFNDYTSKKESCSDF
Protocol for rMAO-A: (§1) MAO inhibitory activities were measured on rat brain mitochondrial homogenates [21].
(§2) The rMAO inhibitory activity of compounds in Table 1 was assessed using a continuous spectrophotometric assay [28], monitoring the rate of oxidation of the nonselective nonfluorescent MAO substrate kynuramine to 4-hydroxyquinoline, as previously reported [21]. […] Finally, IC50 values were determined by nonlinear regression of MAO inhibition vs. -log of the concentration plots, using the program Origin, Version 6.0 (Microcal Software Inc., Northampton, MA, USA).
Protocol for rMAO-B: as §1, §2

Consider `NC(=O)CNCc1cc2ccccc2oc1=O` [Compound 3a, N^2-[(2-oxo-2H-Chromen-3-yl)methyl]glycinamide], for which the inhibition at 10 µM on rMAO-B (rat brain homogenates) was < 5%; at rMAO-A, < 5%; in series [2] (from equine serum, 10 µM), 6.2%. The IC50 in series [1] (setting [5]) is 12 ± 1 µM.

As for `CN(Cc1cccc(F)c1)Cc1cc2ccccc2oc1=O` [Compound 3b, 3-{[(3-Fluorobenzyl)(methyl)amino]methyl}-2H-chromen-2-one hydrochloride], the inhibition at 10 µM at rMAO-B (rat brain homogenates) was < 5%; at rMAO-A, < 5%; in series [2] (from equine serum, 10 µM), 15%. Further, the IC50 in series [1] (AChE IC50, from electric eel) is 6.8 ± 0.1 µM.

In the case of `C#CCN(C)Cc1cc2ccccc2oc1=O` [Compound 3c, 3-{[Methyl(prop-2-yn-1-yl)amino]methyl}-2H-chromen-2-one], the IC50 came to 0.377 ± 0.014 µM at rMAO-B (rat brain homogenates, determined after 30 min pre-incubation, read-out: MAO-B IC50); 7 ± 1.4 µM against rMAO-A (setting [6]); 8.4 ± 0.5 µM in series [1] (setting [5]). The inhibition at 10 µM in series [2] (from equine serum, 10 µM) was < 5%.

Regarding `COc1ccc2cc(CN(C)Cc3cccc(F)c3)c(=O)oc2c1` [Compound 3d, 3-{[(3-Fluorobenzyl)(methyl)amino]methyl}-7-methoxy-2H-chromen-2-one], the inhibition at 10 µM was < 5% on rMAO-B (rat brain homogenates); 6% on rMAO-A; 8.5% in series [2] (from equine serum, 10 µM). In series [1] (setting [5]), the IC50 turned out to be 6.6 ± 0.1 µM.

`COc1ccc2cc(CN(C)Cc3cccc(C#N)c3)c(=O)oc2c1` [Compound 3e, 3-{[[(7-Methoxy-2-oxo-2H-chromen-3-yl)methyl](methyl)amino]methyl}benzonitrile]: the inhibition at 10 µM at rMAO-B (rat brain homogenates) was < 5%; at rMAO-A, 9.2%; in series [2] (from equine serum, 10 µM), < 5%. Also, the concentration for half-maximal inhibition (IC50) in series [1] (setting [5]) stood at 8.4 ± 0.3 µM.

In series [1] (AChE IC50, from electric eel), `C#CCN(C)Cc1cc2ccc(OC)cc2oc1=O` [Compound 3f, 7-Methoxy-3-{[methyl(prop-2-yn-1-yl)amino]methyl}-2H-chromen-2-one hydrochloride] gave an IC50 of 14 ± 1 µM. In addition, the inhibition at 10 µM in series [2] was 13%.

`COc1cc2cc(CN(C)Cc3cccc(Cl)c3)c(=O)oc2cc1OC` [Compound 3g, 3-{[(3-Chlorobenzyl)(methyl)amino]methyl}-6,7-dimethoxy-2H-chromen-2-one hydrochloride]: the inhibition at 10 µM at rMAO-B (rat brain homogenates) was < 5%; at rMAO-A it was 7%; in series [2] (from equine serum, 10 µM) it was 19%. In addition, the 50% inhibitory concentration (IC50) in series [1] (AChE IC50, from electric eel) came to 4.4 ± 1.1 µM.

Compound `C#CCN(C)Cc1cc2cc(OC)c(OC)cc2oc1=O.Cl` [Compound 3h, 6,7-Dimethoxy-3-{[methyl(prop-2-yn-1-yl)amino]methyl}-2H-chromen-2-one hydrochloride] had a Papp A→B at 120 min, 75 µM with P-gp (MDR1) of 22.7 ×10⁻⁶ cm/s. This compound also had a Papp B→A at 120 min, 75 µM with P-gp (MDR1) of 21.8 ×10⁻⁶ cm/s. For the same compound, the half-inhibitory concentration (IC50) against rMAO-B was 0.0028 ± 0.0004 µM; in series [1] (AChE IC50, from electric eel) it was 8.99 µM and 9 µM. Moreover, the inhibition at 10 µM on rMAO-A (setting [6]) was < 5%; in series [2] (from equine serum, 10 µM), < 5%. For the same compound, the “Cytotoxicity (viability of SH-SY5Y cells)” value in the series on SH-SY5Y cells [3] is “negligible cytotoxicity; also recorded: low cytotoxicity”. Moreover, in the series with MDCKII-MDR1 cells, the P-gp substrate result is reported as “not likely to be a substrate for P-gp; also recorded: did not result in a glycoprotein-p (P-gp) substrate”. The “Neuroprotection against oligomycin-A” value in the series with SH-SY5Y cells [4] (0.1 µM compound, oligomycin-A 30 µM, 24 h co-incubation) is “moderate neuroprotection; also recorded: promising neuroprotective effect”. Further, in the series with SH-SY5Y cells [4] (0.1 µM compound, rotenone 75 µM, 24 h co-incubation), the Neuroprotection against rotenone entry is on record as “moderate neuroprotection; also recorded: promising neuroprotective effect”. Moreover, the “Neuroprotection (cell survival)” value with SH-SY5Y cells [4] (1 µM compound, 24 h co-incubation with H2O2 195 µM, oligomycin-A 30 µM or rotenone 75 µM) is recorded as “no increase of cell survival”.

As to `CNCc1cc2cc(OC)c(OC)cc2oc1=O` [Compound 3i, 6,7-Dimethoxy-3-[(methylamino)methyl]-2H-chromen-2-one hydrochloride], the inhibition at 10 µM is < 5% at rMAO-B (rat brain homogenates); < 5% at rMAO-A; 10% in series [2] (from equine serum, 10 µM). For the same compound, the IC50 in series [1] (AChE IC50, from electric eel) came to 13 ± 1 µM.

On to `COc1cc2cc(CNCc3ccccc3)c(=O)oc2cc1OC` [Compound 3j, 3-[(Benzylamino)methyl]-6,7-dimethoxy-2H-chromen-2-one], for which the inhibition at 10 µM is < 5% at rMAO-B (rat brain homogenates); < 5% at rMAO-A; 27% in series [2] (from equine serum, 10 µM). The concentration for half-maximal inhibition (IC50) in series [1] (setting [5]) is 2.78 µM and 2.8 µM.

For `COc1cc2cc(CNCc3ccc(C#N)cc3)c(=O)oc2cc1OC` [Compound 3k, 4-({[(6,7-Dimethoxy-2-oxo-2H-chromen-3-yl)methyl]amino}methyl)benzonitrile], the inhibition at 10 µM on rMAO-B (rat brain homogenates) is < 5%; on rMAO-A, 20%; in series [2] (from equine serum, 10 µM), 13%. In addition, the half-maximal inhibitory concentration (IC50) in series [1] (setting [5]) stood at 8.4 ± 1.1 µM.

Take `COc1cc2cc(CNCC(N)=O)c(=O)oc2cc1OC` [Compound 3l, N^2-[(6,7-Dimethoxy-2-oxo-2H-chromen-3-yl)methyl]glycinamide]: the inhibition at 10 µM at rMAO-B (rat brain homogenates) is < 5%; on rMAO-A, < 5%; in series [2] (from equine serum, 10 µM), 10%. In series [1] (setting [5]), the IC50 was 8 ± 1.2 µM.

On to `CNC(=O)CNCc1cc2cc(OC)c(OC)cc2oc1=O` [Compound 3m, N^2-[(6,7-Dimethoxy-2-oxo-2H-chromen-3-yl)methyl]-N^1-methylglycinamide], for which the inhibition at 10 µM was < 5% on rMAO-B (rat brain homogenates); < 5% on rMAO-A; 11% in series [2] (from equine serum, 10 µM). Moreover, the half-maximal inhibitory concentration (IC50) in series [1] (setting [5]) worked out at 7.7 ± 0.4 µM.

`C#CCN(C)Cc1cc2cc(OC)c(O)cc2oc1=O` [Compound 8, 7-Hydroxy-6-methoxy-3-{[methyl(prop-2-yn-1-yl)amino]methyl}-2H-chromen-2-one]: the inhibition at 10 µM on rMAO-B (rat brain homogenates, determined after 30 min pre-incubation) was 11%; on rMAO-A (setting [6]), 35%; in series [2] (from equine serum, 10 µM) it was < 5%. Further, the IC50 in series [1] (setting [5]) was determined as 9.3 ± 0.4 µM.
